Assay results taken from the supplement of paper PMC13380429.

Columns and labels:
Conditions in all cases: 72 h
Vero E6 [1] = assay: drug sensitivity score (DSS) for viability; higher = more toxic; extreme values may be limits of the assay
U2OS [2] = assay: as above
Calu-3 [3] = assay: as above
Caco-2 [4] = assay: as above
HepG2 [5] = assay: as above
HepG2 [6] = assay: relative viability EC50 (midpoint between 100% and the lowest measured viability); higher = less toxic
Vero E6 [7] = assay: cell viability relative to DMSO; higher = less toxic
U2OS [8] = assay: as above
Calu-3 [9] = assay: as above
Caco-2 [10] = assay: as above
HepG2 [11] = assay: as above
U2OS [12] = assay: relative viability EC50 (midpoint between 100% and the lowest measured viability); higher = less toxic
Caco-2 [13] = assay: as above
Vero E6 [14] = assay: as above
Calu-3 [15] = assay: as above

Row | Compound | drug sensitivity score (Vero E6 [1]) | drug sensitivity score (U2OS [2]) | drug sensitivity score (Calu-3 [3]) | drug sensitivity score (Caco-2 [4]) | drug sensitivity score (HepG2 [5]) | relative viability EC50 (HepG2 [6]) | cell viability (Vero E6 [7]; 1 nM) | cell viability (Vero E6 [7]; 10 nM) | cell viability (Vero E6 [7]; 100 nM) | cell viability (Vero E6 [7]; 1000 nM) | cell viability (Vero E6 [7]; 10000 nM) | cell viability (U2OS [8]; 1 nM) | cell viability (U2OS [8]; 10 nM) | cell viability (U2OS [8]; 100 nM) | cell viability (U2OS [8]; 1000 nM) | cell viability (U2OS [8]; 10000 nM) | cell viability (Calu-3 [9]; 1 nM) | cell viability (Calu-3 [9]; 10 nM) | cell viability (Calu-3 [9]; 100 nM) | cell viability (Calu-3 [9]; 1000 nM) | cell viability (Calu-3 [9]; 10000 nM) | cell viability (Caco-2 [10]; 1 nM) | cell viability (Caco-2 [10]; 10 nM) | cell viability (Caco-2 [10]; 100 nM) | cell viability (Caco-2 [10]; 1000 nM) | cell viability (Caco-2 [10]; 10000 nM) | cell viability (HepG2 [11]; 1 nM) | cell viability (HepG2 [11]; 10 nM) | cell viability (HepG2 [11]; 100 nM) | cell viability (HepG2 [11]; 1000 nM) | cell viability (HepG2 [11]; 10000 nM) | relative viability EC50 (U2OS [12]) | relative viability EC50 (Caco-2 [13]) | relative viability EC50 (Vero E6 [14]) | relative viability EC50 (Calu-3 [15])
1 | CCCC(CCC)C(=O)Nc1ccn([C@@H]2O[C@H](CO)[C@@H](O)C2(F)F)c(=O)n1 | 2 | 1 | 2.3 | 2.1 | 13 | 0.259 µM | 93.7% | 93% | 87.7% | 98.3% | 63% | 97.5% | 100% | 101% | 110% | 68.2% | 98.3% | 97.3% | 91% | 91.7% | 67.9% | 94.7% | 106% | 94.3% | 96.3% | 66.7% | 98.3% | 108% | 85% | 39.4% | 30.1% |  |  |  | 
2 | CNC(=O)c1ccc(C)c(-n2c(C)cc(OCc3ccc(F)cc3F)c(Br)c2=O)c1 | 5 | 3.1 | 5.2 | 3.1 | 1.5 |  | 98.7% | 92% | 85.5% | 82.3% | 58.8% | 101% | 99.2% | 90.2% | 81.9% | 78.7% | 94.7% | 92.6% | 74% | 93.6% | 56.8% | 90.9% | 95.3% | 93% | 79.6% | 75.4% | 111% | 104% | 106% | 99.7% | 67.7% | > 10 µM | > 10 µM |  | 
3 | Cc1ccc(/C=N/NC(=O)c2ccccc2Oc2ccccc2)o1 | 0 | 0 |  | 0.1 | 0 | > 10 µM | 97% | 101% | 98.9% | 95.6% | 93.7% | 106% | 97.3% | 98.1% | 93% | 98.6% |  |  |  |  |  | 96% | 99.6% | 100% | 95.2% | 88.7% | 103% | 103% | 91.7% | 94.2% | 102% | > 10 µM | > 10 µM | > 10 µM | 
4 | Cn1ncnc1COc1nn2c(-c3cc(F)ccc3F)nnc2cc1C(C)(C)C | 0 | 0 | 0 |  | 0 |  |  |  |  |  |  |  |  |  |  |  |  |  |  |  |  |  |  |  |  |  |  |  |  |  |  |  |  |  | 
5 | O=C(NCC(=O)N1CC[C@H](N[C@H]2CC[C@@](O)(c3ccc(-c4ncccn4)cn3)CC2)C1)c1cccc(C(F)(F)F)c1 | 0 | 0 |  | 0 | 0 | > 10 µM | 107% | 102% | 101% | 99.4% | 98.7% | 97.8% | 105% | 97.7% | 101% | 96.4% |  |  |  |  |  | 104% | 108% | 92.7% | 92.7% | 96.8% | 103% | 97.6% | 105% | 97.4% | 100% | > 10 µM | > 10 µM | > 10 µM | 
6 | CCCCCCCN(CC)CCC[C@@H](O)c1ccc(NS(C)(=O)=O)cc1 (racemic) [ibutilide] | 0 | 0 | 0 |  | 0 |  |  |  |  |  |  |  |  |  |  |  |  |  |  |  |  |  |  |  |  |  |  |  |  |  |  |  |  |  | 
7 | CCCCCCCCCCCCCCCC=O [1-hexadecanal] | 0 | 0 |  | 0 | 0 | > 10 µM | 106% | 98.4% | 106% | 96.5% | 102% | 102% | 104% | 96.3% | 104% | 97.5% |  |  |  |  |  | 104% | 98% | 85.6% | 95.2% | 108% | 109% | 105% | 102% | 95.8% | 97% | > 10 µM | > 10 µM | > 10 µM | 
8 | CC(=C\c1ccc(Cl)cc1)/C(C)=N/O [AP-18] | 0 | 0 |  | 0 | 0 | > 10 µM | 104% | 106% | 102% | 105% | 99.3% | 100% | 106% | 97.6% | 103% | 100% |  |  |  |  |  | 99.5% | 104% | 90.4% | 98.1% | 95.7% | 103% | 95.3% | 89.6% | 101% | 107% | > 10 µM | > 10 µM | > 10 µM | 
9 | CC(C)Nc1cc(-c2c[nH]c(C(=O)N[C@H](CO)c3cccc(Cl)c3)c2)c(Cl)cn1 [BVD-523] | 4.5 | 1.9 | 3.5 | 4.7 | 10.5 | 0.703 µM | 100% | 104% | 91.9% | 80.7% | 52.9% | 103% | 101% | 95.5% | 96.7% | 69.3% | 106% | 97.4% | 89.7% | 92.1% | 57.5% | 105% | 106% | 101% | 76.7% | 61.2% | 104% | 102% | 92.6% | 51.4% | 19.5% |  |  |  | 
10 | NCCNS(=O)(=O)c1ccc(Cl)c2ccncc12 [CKI-7] |  | 0 |  | 0.1 | 0 | > 10 µM |  |  |  |  |  | 95.6% | 100% | 98.8% | 102% | 98.7% |  |  |  |  |  | 105% | 110% | 102% | 102% | 86.1% | 110% | 94.9% | 105% | 102% | 107% | > 10 µM | > 10 µM |  | 
11 | Cc1c(Cl)cccc1S(=O)(=O)Nc1nc(NCCc2ccccc2)nc2c1CN(Cc1ccccc1)CC2 [CaMKII-IN-1] | 0 | 0 |  | 0.3 | 0 | > 10 µM | 95.3% | 104% | 98.2% | 97.7% | 108% | 102% | 102% | 105% | 98.9% | 88.7% |  |  |  |  |  | 98.9% | 96.1% | 93% | 102% | 83.1% | 88.3% | 97.1% | 90.6% | 101% | 93.6% | > 10 µM | > 10 µM | > 10 µM | 
12 | NC(=O)c1nc(F)cnc1O [Favipiravir] |  |  | 0 |  | 0 | > 10 µM |  |  |  |  |  |  |  |  |  |  | 101% | 93.2% | 92.5% | 94.6% | 107% |  |  |  |  |  | 104% | 102% | 109% | 91.8% | 98.2% |  |  |  | > 10 µM
13 | CC(C)CNc1ccnc(NCc2csc(-c3ccccc3)n2)n1 [KHS-101] | 0.7 | 1.6 | 3.2 | 4.6 | 6.9 | 1.92 µM | 103% | 99% | 103% | 101% | 78.1% | 99.9% | 97.9% | 102% | 97% | 72.9% | 94.1% | 91.6% | 101% | 89.3% | 64.8% | 91.3% | 103% | 98.1% | 85.2% | 53.3% | 104% | 102% | 95.3% | 86.4% | 16.4% |  |  | > 10 µM | 
14 | CC(O)c1cc(C(=O)N[C@@H](C)Cn2ccc(-c3ccc(C#N)c(Cl)c3)n2)n[nH]1 (stereo partly specified) [ODM-201] | 0 | 0 |  | 0 | 0 | > 10 µM | 95.6% | 101% | 93.1% | 94.5% | 103% | 98.3% | 98.2% | 103% | 93.4% | 111% |  |  |  |  |  | 104% | 89.8% | 102% | 106% | 103% | 88.1% | 111% | 92.6% | 112% | 105% | > 10 µM | > 10 µM | > 10 µM | 
15 | CCOC(=O)c1cc2ccc(O)cc2oc1=O [YZ9] | 0 | 0 |  | 0 | 0 | > 10 µM | 92% | 95.5% | 96.3% | 101% | 102% | 99.3% | 94.7% | 92.9% | 103% | 104% |  |  |  |  |  | 98.6% | 94.3% | 102% | 98.8% | 99.5% | 98.6% | 103% | 107% | 96.5% | 117% | > 10 µM | > 10 µM | > 10 µM | 
16 | C[C@H](Nc1ncnc2[nH]cnc12)c1nc2ccc(F)cc2c(=O)n1-c1ccccc1 [acalisib] | 1.5 | 0 | 2.7 | 0.9 | 0.9 | > 10 µM | 104% | 101% | 95.8% | 89.9% | 76.2% | 109% | 104% | 106% | 99.4% | 94.3% | 107% | 103% | 104% | 93.8% | 65.1% | 105% | 104% | 91.6% | 102% | 74.9% | 106% | 107% | 109% | 93.7% | 83.6% | > 10 µM |  | > 10 µM | 
17 | O=C(O)CCCCC(=O)O [adipic-acid] | 0 | 0 |  | 0 | 0 | > 10 µM | 94.9% | 99.9% | 89.3% | 93.1% | 102% | 102% | 96.7% | 99.6% | 103% | 104% |  |  |  |  |  | 89% | 87% | 95.1% | 96.6% | 105% | 104% | 108% | 94.4% | 97.4% | 105% | > 10 µM | > 10 µM | > 10 µM | 
